According to patent publication US11873405B2, “High oleic oil compositions and uses thereof” (priority 2021, dated 2024):

Assays:
[1] = test system: E06 mutant (Strain K) microalgae cells; assay: Selection for tolerance to triparanol: growth in 3-day lipid production culture, 96-deep well block; format: cell-based, Prototheca wickerhamii; settings: cells exposed to increasing amounts of triparanol, FIG. 7
Experimental: The cryo-vials were thawed and used to initiate a 10 mL pre-seed culture in bioreactor tube, which was incubated for 72 h at 28° C./200 rpm. Two rounds of selection and enrichment with increasing amounts of triparanol were conducted following the strategy outlined in FIG. 3. […] This population was collected on sterile filters, diluted, and spread on solid media. The resulting clonal isolates were screened in our automated 96-well block-based lipid production and glucose consumption assay. A number of strains with increased oleate levels were identified among the mutant clones (TABLE 5). Strains validated in repeat assays were then assessed for phenotypic stability. Stable strains were cryo-preserved.
Cells were exposed to increasing amounts of triparanol during a 3-day lipid production culture in a 96-deep well block. Significant inhibition of growth occurred at […] concentrations >2 μM. Rare surviving cells presumed to be in wells where 50% inhibition was observed were recovered by sterile filtration, washed with and collected from the filter in M20+glucose pre-seed media. The cultures were then used to initiate another round of selection. By the third round of selection (right panels), a subtle difference in the growth of the mutant population compared to the mock-mutagenized controls was observed. […]

[2] = test system: E06 mutant (Strain K) microalgae cells; assay: Selection for tolerance to membrane stress: growth (OD750) in 3-day lipid production culture, 96-deep well block; format: cell-based, Prototheca wickerhamii; settings: fixed 1.6 μM triparanol plus increasing phenethyl alcohol, FIG. 6
Experimental: The mutant strain, Strain 0_E06 (Strain E06), while not phenotypically stable, consistently achieved higher oleate levels than the mutant lineage that gave rise to Strain 1 (TABLE 3). As such, this mutant lineage was selected for further rounds of classical strain improvement, and designated as “Strain K”. Following overnight growth in M21+40 g/L glucose seed media to mid-log phase, the E06 mutant was exposed to 270 mM ethyl methanesulfonate (EMS) in 0.1 M potassium phosphate buffer (pH 7.0) for 45 min at room temperature in dark and with periodic gentle agitation. Mutagenesis was terminated with the addition of a sodium thiosulfate solution to final concentration of 3% (w/v). In parallel, a mock-mutagenized control cell population was taken through all the same manipulations, except for exposure to EMS. Cells were collected using 0.2-micron filter sterilization units, washed extensively with water, and then washed with and into 5 mL M20+5 g/L glucose pre-seed media. Pre-seed cultures were incubated at 28° C./900 rpm/80% humidity for 72 h. An 8% (v/v) inoculum from each culture was then used to initiate a seed culture in 10 mL of standard M21+5 g/L glucose seed media in 50-mL bioreactor tubes. […] Growth was then assessed by measuring optical density at 750 nm wavelength (OD750) in a Molecular Devices Spectramax M5 plate reader. […]

SMILES: OCCc1ccccc1 [phenethyl alcohol]
- concentrations at which significant inhibition of growth occurred [1]: > 2 µM
- concentrations at which significant inhibition of growth occurred [2]: > 3.6 mM
